“Also recorded” adds a separate entry of the source.
Key:
[1] = system: BJAB Burkitt lymphoma cells; assay: CellTiter-Glo Luminescent Cell Viability assay; format: cell-based; conditions: 72 h; for effect on BJAB cell viability: top concentration 10 uM
Method: Compounds 1 and compound 28 were evaluated in a CellTiter-Glo (CTG) Luminescence cell viability assay in BJAB Burkitt lymphoma cells that are known to be sensitive to eIF4A inhibition. This assay quantitates the number of living, metabolically active cells by measuring their ATP levels.
Cell viability assay. BJAB lymphoma cells were plated in quadruplicate at 5,000 cells/well in serial dilutions of drug ranging two logs with the top concentration of compounds tested at 10 uM. Viability was measured after 72 h using Cell Titer Glo (Promega G7573) following the manufacturer's protocol. Luminescence was detected on the BioTek HT Synergy plate reader and values were normalized to vehicle-treated (DMSO) wells. Silvestrol was included as a positive control (not shown).

eIF4A [2] = biological target: T1, eIF4A (Homo sapiens, UniProt P60842); assay: RNA-stimulated malachite green ATPase assay; format: biochemical; set-up: 6xHis with TEV protease site (N, cleaved yes); made in house; host or cells: E. coli BL21-CodonPlus; conditions: for potency in the eIF4A ATPase assay (in words): comparison within the series
Method: Human eIF4A protein was produced recombinantly and a greater than 100,000-compound screen for inhibitors was completed using a malachite green ATPase assay (FIG. 11A). […] A stable mixture of yeast RNAs was added in an effort to improve this system and create a more biologically relevant eIF4A assay. eIF4A ATPase activity was accelerated without a statistically significant increase in the background signal in the presence of this RNA (FIG. 11B), and the new conditions gave excellent statistical parameters in a 384-well plate format (FIG. 11C).
ATPase assay. Recombinant WT or mutant eIF4A was added to a clear bottom 384 well plate (Greiner) in ATPase buffer (20 mM Tris pH 7.4, 80 mM KCl, 2.5 mM MgCl2, 1 mM DTT, 1% glycerol). Compounds were added and the plate was incubated at 37° C. for 20 min. ATP/RNA solution was added to afford a 20 μL per well reaction volume with 750 nM eIF4A, 250 μM ATP, and 0.25 mg/mL Yeast RNA (Sigma) for the initial screen and dose responses, and varying concentrations of ATP and RNA for the kinetic assays. The plate was incubated for 4 h at 37° C. for the initial screen and dose responses, and at seven time points (1 hour-7 hours) for kinetic assays. 0.04% v/v (final concentration) Tween-20 was added to a Malachite Green solution, and the Malachite Green (40 μL per well) was added. The solution was incubated for 5 minutes at room temperature and Absorbance at 660 nm was read on a SpectraMax iD5 plate reader (Molecular Devices).
Target sequence in this assay (P60842 whole entry): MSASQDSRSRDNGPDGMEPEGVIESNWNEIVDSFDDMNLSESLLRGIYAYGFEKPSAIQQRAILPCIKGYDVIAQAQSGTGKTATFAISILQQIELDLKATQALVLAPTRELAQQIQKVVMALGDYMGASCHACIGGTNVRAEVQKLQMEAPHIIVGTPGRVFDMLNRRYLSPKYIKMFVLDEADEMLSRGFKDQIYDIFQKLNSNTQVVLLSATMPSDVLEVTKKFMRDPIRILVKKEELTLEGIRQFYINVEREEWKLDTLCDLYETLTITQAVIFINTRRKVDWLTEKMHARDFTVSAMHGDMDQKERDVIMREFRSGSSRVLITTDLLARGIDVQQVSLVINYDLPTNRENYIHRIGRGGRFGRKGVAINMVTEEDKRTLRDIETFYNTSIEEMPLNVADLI

eIF4A [3] = biological target: T1, eIF4A; assay: MANT-ATP fluorescence polarization assay; format: binding; set-up: 6xHis with TEV protease site (N, cleaved yes); made in house; host or cells: E. coli BL21-CodonPlus; conditions: compound 200 μM or ADP 1 mM; MANT-ATP 100 nM
Method: Additional biochemical testing was performed on compound 28 to investigate its mechanism of eIF4A inhibition. Initially, kinetics experiments were repeated with compound 28, and the results for compound 28 matched those of compound 1 (FIG. 5D, 4A). Upon addition of compound 28, Km and Vmax of eIF4A decreased with respect to ATP. With respect to RNA, eIF4A Km […] and Vmax remained constant. […] Fluorescence polarization (FP) assays were utilized to confirm this mechanism of inhibition by testing the ability of compound 28 to compete fluorescent substrates off eIF4A. First, an FP assay was performed with MANT-ATP, a fluorescent, non-hydrolysable ATP analog, as the substrate.
MANT-ATP fluorescence polarization assay. Recombinant eIF4A (15 μM) was added to a low-volume black 384 well plate (Greiner). Yeast RNA (0.25 mg/mL) was added along with compound (200 μM) or ADP (1 mM) and the plate was incubated for 20 min. MANT-ATP was added (100 nM) and the plate was incubated for 30 min before fluorescence polarization was read at 355 nm:448 nm (Ex:Em) on a SpectraMax iD5 plate reader (Molecular Devices).
Target sequence in this assay (P60842 whole entry): as above

[4] = system: HCV IRES-dependent translation of Renilla luciferase; assay: in vitro translation of bicistronic luciferase reporter in rabbit reticulocyte lysate, Renilla luciferase; format: biochemical; conditions: Cycloheximide 600 μM, Silvestrol 100 nM
Source text: (§1) A bicistronic luciferase reporter ([…]) (FIG. 7B, top) was programmed into rabbit reticulocyte lysates, cellular extracts capable of performing both cap-dependent and Hepatitis C virus (HCV) internal ribosomal entry site (IRES)-mediated translation. eIF4A is the enzymatic driver of cap-dependent translation and is not involved in translation through HCV IRES. Compounds that inhibit eIF4A should inhibit cap-dependent translation of firefly (FF) luciferase while leaving IRES-mediated translation of Renilla (Ren) luciferase relatively unaffected. The inhibitory activities of cycloheximide, silvestrol, and 28 were assessed in this in vitro translation assay (FIG. 7B, bottom). […] The ability of compound 28 to preferentially target cap-dependent translation in a similar manner as silvestrol provides promising evidence that 28 inhibits eIF4A and not other proteins in the general translational machinery.
(§2) The dual-luciferase reporter plasmid pSP/(CAG)33/FF/HCV/Ren-pA51 was linearized with BamHI and subsequently in vitro transcribed using the Promega mMessage mMachine SP6 transcription kit, according to manufacturer's specifications. RNA was precipitated with LiCI and resuspended in H2O for use in in vitro translation experiments. Rabbit reticulocyte lysate (RRL) (nuclease-treated, Promega) was used to assess inhibitory effects of 28 on translation of the dual-reporter. Briefly, a reaction consisting of 50% RRL, 30 ng/μL reporter RNA, 10 μM Amino Acid Mixture Minus Methionine, 10 μM Amino Acid Mixture Minus Leucine, […], 1 U/μL RNAseOut (Thermo), and drug (final DMSO concentration 1%) were incubated at 30° C. for 90 minutes. The reaction was quenched with 50 μL 1× Passive Lysis Buffer (Promega), 10 μL of the mix was transferred to a 96-well white plate (Cellstar), and the Dual-Reporter Luciferase Assay System (Promega) was used to generate luminescence according to the manufacturer's instructions. Luminescence was detected using a plate reader (BioTek HT Synergy).

eIF4A [5] = biological target: T1, eIF4A; assay: Cellular Thermal Shift Assay (CETSA) in A549 cells; format: cell-based; set-up: endogenous in cells; host or cells: A549 cells; conditions: 90 min, 55° C., silvestrol 100 nM
Method: In CETSA, thermal stability of a protein is assessed by heating cells and then separating insoluble, aggregated, or denatured proteins from soluble proteins through supernatant/pellet fractionation. Levels of the protein of interest (eIF4A) remaining in the soluble fraction are then measured by western blot. The principle of CETSA is similar to differential scanning fluorimetry (DSF), in that thermal stability and solubility of a protein increases upon binding a ligand.
Cellular Thermal Shift Assay (CETSA). A549 cells were seeded into wells in 6-well plates and on the following day were exposed to 28 or silvestrol (100 nM) for 90 min. Cells were harvested, resuspended in 50 μL DMEM, and dispensed into thin-walled PCR tubes. Cells were subjected to 3 min of heat at 55° C. in a thermocycler (miniPCR). After heating, cells were left to cool for 3 min and then snap-frozen on dry ice. Cells were subjected to 3 rapid freeze thaws with 15 seconds of vortexing after each thaw. After the first thaw, 1 μL of a dissolved Pierce protease inhibitor tablet (ThermoFisher—A32963) was added to the cell lysate. Cell lysates were centrifuged at 20,000×g for 20 min. […] All immunoblot images were taken using the Azure 600 imaging system (Azure Biosystems) and analyzed using ImageJ 1.51s (NIH). […]
Target sequence in this assay (P60842 2-406): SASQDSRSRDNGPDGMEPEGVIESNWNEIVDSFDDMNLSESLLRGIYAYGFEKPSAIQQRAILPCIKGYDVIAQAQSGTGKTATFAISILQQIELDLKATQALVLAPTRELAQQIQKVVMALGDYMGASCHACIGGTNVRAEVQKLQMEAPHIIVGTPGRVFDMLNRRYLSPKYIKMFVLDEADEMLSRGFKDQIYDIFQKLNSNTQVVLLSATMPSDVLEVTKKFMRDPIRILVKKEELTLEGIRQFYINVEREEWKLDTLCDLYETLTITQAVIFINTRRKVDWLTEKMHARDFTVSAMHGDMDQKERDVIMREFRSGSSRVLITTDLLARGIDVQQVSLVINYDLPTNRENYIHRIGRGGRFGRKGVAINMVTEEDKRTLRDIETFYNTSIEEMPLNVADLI

[6] = system: cap-dependent translation of firefly luciferase; assay: in vitro translation of bicistronic luciferase reporter in rabbit reticulocyte lysate, firefly luciferase; format: biochemical; conditions: Cycloheximide 600 μM, Silvestrol 100 nM
Source text: as §1, §2

Structure (SMILES) | effect on BJAB cell viability [1] | potency in the eIF4A ATPase assay (in words) (eIF4A [2]) | further results
Nc1ccc(-c2ccc(-c3cc(C(=O)O)c4cc([N+](=O)[O-])ccc4n3)o2)cc1 [Compound 46, 2-(5-(4-aminophenyl)furan-2-yl)-6-nitroquinoline-4-carboxylic acid] | do not inhibit BJAB cell viability | low potency; also recorded: lose potency in the ATPase assay | –
CCCCc1ccc(-c2ccc(-c3cc(C(=O)O)c4cc(NC(C)=O)ccc4n3)o2)cc1 [Compound 25, 6-acetamido-2-(5-(4-butylphenyl)furan-2-yl)quinoline-4-carboxylic acid] | do not decrease BJAB cellular viability | lose potency in the ATPase assay; also recorded: major losses in potency | –
CCCCc1ccc(-c2ccc(-c3cc(C(=O)OCC)c4cc([N+](=O)[O-])ccc4n3)o2)cc1 [Compound 29, ethyl 2-(5-(4-butylphenyl)furan-2-yl)-6-nitroquinoline-4-carboxylate] | did not inhibit cellular viability | not potent in the ATPase assay; also recorded: lost all eIF4A potency | –
Nc1cccc(-c2ccc(-c3cc(C(=O)O)c4cc([N+](=O)[O-])ccc4n3)o2)c1 [Compound 47, 2-(5-(3-aminophenyl)furan-2-yl)-6-nitroquinoline-4-carboxylic acid] | do not inhibit BJAB cell viability | low potency; also recorded: lose potency in the ATPase assay | –
CCCCc1ccc(-c2ccc(-c3cc(C(=O)O)c4cc(N)ccc4n3)o2)cc1 [Compound 24, 6-amino-2-(5-(4-butylphenyl)furan-2-yl)quinoline-4-carboxylic acid] | do not decrease BJAB cellular viability | lose potency in the ATPase assay; also recorded: major losses in potency | –
Nc1ncnc2c1ncn2[C@@H]1O[C@H](COP(=O)(O)OP(=O)(O)O)[C@@H](O)[C@H]1O [ADP, reference compound] | – | – | competition of MANT-ATP off eIF4A (eIF4A [3]): able to compete MANT-ATP out of its binding pocket
COC(=O)[C@H]1[C@@H](O)[C@@]2(O)c3c(OC)cc(O[C@@H]4O[C@@H]([C@H](O)CO)CO[C@H]4OC)cc3O[C@@]2(c2ccc(OC)cc2)[C@@H]1c1ccccc1 [silvestrol, reference compound] | – | – | effect on HCV IRES-mediated translation (Renilla luciferase) [4]: only show a modest effect on HCV IRES-dependent translation of Renilla luciferase; thermal stability of eIF4A in cells (CETSA) (eIF4A [5]): increased thermal stability of eIF4A; effect on cap-dependent translation (firefly luciferase) [6]: inhibit cap-dependent translation of firefly luciferase
C[C@@H]1C[C@@H]([C@H](O)CC2CC(=O)NC(=O)C2)C(=O)[C@@H](C)C1 [Cycloheximide, reference compound] | – | – | effect on HCV IRES-mediated translation (Renilla luciferase) [4]: inhibits both cap-dependent and IRES-mediated translation; effect on cap-dependent translation (firefly luciferase) [6]: inhibits both cap-dependent and IRES-mediated translation
CCCCc1ccc(-c2ccc(-c3cc(C(=O)O)c4ccc(Cl)cc4n3)o2)cc1 [Compound 9, 2-(5-(4-butylphenyl)furan-2-yl)-7-chloroquinoline-4-carboxylic acid] | – | moderate potency; also recorded: performing the best in the ATPase assay of any inhibitor produced | EC50 ([1]; Homo sapiens, CellTiter-Glo, n=4): 4.29 ± 0.23 µM; IC50 (eIF4A [2]; 750 nM eIF4A, 250 μM ATP, 0.25 mg/mL Yeast RNA, 4 h at 37° C.): 21.7 ± 3.39 µM

Reference: patent US20240360107A1, “AN EIF4A INHIBITOR WITH A NOVEL MECHANISM OF ACTION” (ARIZONA BOARD OF REGENTS ON BEHALF OF THE UNIVERSITY OF …, priority 2021, published 2024)
